Assays:
[1] = system: maximal electroshock (MES) induced seizure; assay: 5-day chronic treatment tolerance study (MES test); type: in vivo; details: rats
Experimental: Compound C, i.e., N-acetyl-D, L-phenylglycine N-benzylamide was subjected to 5-day chronic treatment on anticonvulsant activity (maximal electroshock). 3 groups of 8 animals each were treated as follows. One group was given the MES ED50 of the test drug for 5 days; the second group was given the requisite volume of the vehicle (0.04 ml/10 g body wt.) for 4 days and a single dose (MES ED50) of the test drug on day 5; and the third group was given the requisite volume of the vehicle daily for 5 days. At the time of peak effect of the candidate substance on day 5, all groups were subjected to the MES test and the number of animals protected recorded. Seizure components of the unprotected animals were timed to the nearest 10th of a second and the extensor/flexor (E/F) ratio, S.E., and p value determined. Since extensor duration decreases and flexor duration increases as a maximal seizure is attenuated, the E/F ratio provides a measure of seizure severity.

[2] = system: liver microsomal system; assay: 7-day liver microsomal studies; type: in vivo, rats; details: rat, in vivo, 48 mg/kg
Experimental: Two of the three groups of animals subjected to the hexobarbital sleep time test (chronically treated and vehicle control groups) were continued on their respective original treatment regimen for two days (days 6 and 7) and 24 hours later (day 8) subjected to liver microsomal studies. The rats were decapitated and the livers perfused with 0.9% sodium chloride solution. The livers were removed, weighed, and homogenized in 0.25M sucrose. Microsomes were prepared and their drug metabolizing capabilities (microsomal protein yield; cytochrome P-450 concentration; p-nitroanisole O-demethylase and NADPH cytochrome c reductase activities; norbenzphetamine MI complex formation; and glucuronyl transferase, erythromycin demethylase, and ethylmorphine demethylase activities) measured (Arch. Biochem. Biophys. 143: 318-329, 1971).

[3] = rotorod neurologic toxicity test, mice (ip); type: in vivo; details: male, Carthworth Farms No. 1, in vivo, ip; mouse, i.p., rotorod test at peak effect (Table 6); read-out: MOUSE ED50 Neurotox
From the text: (§1) Compounds were screened for anticonvulsant activity in both male albino Carthworth Farms No. 1 mice (ip route) and male albino Sprague Dawley rats [oral (po) route]. Activity was established using the electrical (maximal electroshock or MES) test. In the MES test, a drop of electrolyte solution with anesthetic (0.5% butacaine hemisulfate in 0.9% sodium chloride) was used in the eyes of the animals prior to positioning the corneal electrodes and delivery of current. […] Protection endpoints were defined as the abolition of the hind limb tonic extensor component of the induced seizure. In mice, effects of compounds on forced spontaneous motor activity were determined using the rotorod test. […] Normally under these conditions, mice maintain their balance almost indefinitely. In rats, motor impairment is assessed by observing for overt evidence of ataxia, abnormal gait and stance, and/or loss of placing response and muscle tone. In the mouse identification screening study all compounds were given at three dose levels (30, 100, 300 mg/kg) and two time periods (0.5 hours, 4 hours). Typically, in the MES seizures test one animal was tested at 30 mg/kg and 300 mg/kg, and three animals at 100 mg/kg. In the rotored toxicity test four animals were tested at 30 mg/kg, and 300 mg/kg, and eight animals at 100 mg/kg.
(§2) The quantitative determination of the median effective (ED50) and toxic doses (TD50) was conducted at previously calculated times of peak effect. Groups of at least eight animals were tested using different doses of test compound until at least two points wee determined between 100 and 0% protection and minimal motor impairment. The dose of candidate substance required to produce the defined end-point in 50% of the animals in each test and the 95% confidence interval was calculated.

[4] = system: motor impairment (rotorod test); assay: rotorod neurologic toxicity test, mice (ip); type: in vivo; details: mice, ip, rotorod test, at time of peak effect
From the text: as §1, §2

With `CC(=O)NC(C)C(=O)NCc1ccccc1` (racemic) [compound 1, N-Acetyl-D,L-alanine-N′-benzylamide] the “tolerance to the anticonvulsant effects (MES Test)” value ([1]; 5 daily doses of 48 mg/kg) was “does not induce tolerance”, the “animals protected, MES test” value ([1]; chronically treated group, 5 daily doses of 48 mg/kg) was 3/8 and the “animals protected, MES test” value ([1]; single dose acute control group, MES ED50 (48 mg/kg)) was 4/8. The “NADPH cytochrome c reductase activity” value ([2]; Sprague Dawley, 7 days) was 105.0 ± 4.1 nmol/mg/min, the “p-nitroanisole O-demethylase activity” value ([2]; Sprague Dawley, 7 days) was 0.62 ± 0.07 nmol/mg/min and the “liver microsomal enzyme activity” value [2] was “unaltered”. The ED50 [3] was 454 mg/kg and the “tox, TD50” value [4] was 454 [0.5] mg/kg.
